Results as given in patent publication US7749528B2, “Implantable and sealable medical device for unidirectional delivery of therapeutic agents to tissues” (priority 2001, dated 2010).

Tests used:
[1] = Phase I study of the toxicity of local carboplatin; format: in vivo; conditions: following 6 local injections of carboplatin
Procedure: Protection Against Local Orbital or Periocular Toxicity: The periocular delivery of therapeutic agents is employed when increased amounts of the agent are needed inside the eye. In the case of advanced intraocular retinoblastoma, tumor cells in the vitreous gel are not exposed to sufficient amounts of the chemotherapeutic agents. For this reason, local periocular carboplatin is added to the regimen of systemic chemotherapy for advanced disease. […] Mulvihill et al. reported the complications associated with periocular injections of the chemotherapeutic agent carboplatin in infants with retinoblastoma. This emphasizes the need of a sealed system for unidirectional delivery of toxic agents to the eye.

[2] = cited from earlier work
[3] = administered locally; cited from earlier work
[4] = cited from earlier work; remark: listed apart in the source

In the case of `N.N.O=C([O-])C1(C(=O)[O-])CCC1.[Pt+2]` [carboplatin], the long-term toxic effects [1] is given as “atrophy of the orbital fat and connective tissue”, the local tissue tolerance ([2]; bolus injected into the periocular space) is given as “well tolerated by the local tissue” and the “complications after periocular injection” value ([2]; periocular injections, after a certain period following the injection) is given as “ocular motility problems, including restriction of the eye movements”.
In the case of `COc1cc([C@@H]2c3cc4c(cc3[C@@H](O[C@@H]3O[C@@H]5CO[C@@H](C)O[C@H]5[C@H](O)[C@H]3O)[C@H]3COC(=O)[C@H]23)OCO4)cc(OC)c1O` [Etoposide], the local toxicity [3] is listed as “extremely toxic when administered locally”.
In the case of `CO[C@@H]1[C@H](N(C)C(=O)c2ccccc2)C[C@H]2O[C@]1(C)n1c3ccccc3c3c4c(c5c6ccccc6n2c5c31)C(=O)NC4` [PKC412], the “side effects when administered orally” value ([4]; administered orally) is given as “nausea and diarrhea” and the “toxicity by the periocular route” value ([4]; periocular route, simple injections) is given as “ocular irritation and toxicity was observed”.
